Experimental data as given in patent US4594319A, “Protein kinase enzyme AUT-PK 500 and a radioimmunoassay for detection of neoplasia” (The University of Tennessee Research Corp., priority 1984, dated 1986).

Columns and labels:
AUT-PK 500 [1] = assay: Protein kinase assay: autophosphorylation of AUT-PK 500 (32P incorporation from [gamma-32P] ATP); format: biochemical, rat; conditions: for ^32 P Incorporated (autophosphorylation of AUT-PK 500): 1 microgram enzyme; for concentration giving peak activity of the enzyme / maximal activation, relative to that obtained by Mn^2+ or Mg^2+ / EC50: divalent cations; for EC50: read-out: concentration resulting in half-maximal stimulation of AUT-PK 500; for influence of sulfhydryl group inhibitors on AUT-PK 500 activity: see Table IV; for effect on the AUT-PK 500 activity: monovalent cations, concentrations of up to 100 mM; for effect on the autophosphorylation of AUT-PK 500: filter assay or radioautography of SDS gel
Experimental: ATP into an appropriate substrate. […] ATP (400-600 cpm/pmol) and an appropriate amount of the enzyme. The reaction was incubated at 37° C. for one minute or as specified under experimental conditions, and was terminated by the addition of 2 ml of ice-cold 10% trichloroacetic acid followed by the addition of 500 micrograms of bovine serum albumin. The precipitate was immediately filtered on a GF/C filter and washed three times with 2 ml of ice-cold 10% trichloroacetic acid. The filter was dried and counted in a cocktail of Omnifluor in toluene. […]
Autophosphorylation of AUT-PK 500 was also analyzed by one-dimensional SDS-polyacrylamide gel electrophoresis. […] ATP. […] The phosphorylated sample was applied to 6% acrylamide containing 0.1% SDS and 0.3% Bis. Electrophoresis was conducted in the presence of Tris-glycine buffer, pH 8.3.

AUT-PK 500 [2] = assay: Phosphorylation of exogenous substrates by AUT-PK 500; format: biochemical, rat
Experimental: Protein kinase activity was measured by the incorporation of ^32 P from [gamma-^32 P] ATP into an appropriate substrate. The 250-microliter reaction mixture contained 20 mM Tris-HCl, pH 7.5, 10 mM Mg^2+, 2.5×10^-6 M [gamma-^32 P] ATP (400-600 cpm/pmol) and an appropriate amount of the enzyme. The reaction was incubated at 37° C. for one minute or as specified under experimental conditions, and was terminated by the addition of 2 ml of ice-cold 10% trichloroacetic acid followed by the addition of 500 micrograms of bovine serum albumin. The precipitate was immediately filtered on a GF/C filter and washed three times with 2 ml of ice-cold 10% trichloroacetic acid. The filter was dried and counted in a cocktail of Omnifluor in toluene.
Most of the known cyclic nucleotide-dependent or -independent protein kinases catalyze the phosphorylation of one or more of the commonly used exogenous substrates such as histone, casein, protamine, and phosvitin. […] In order to confirm this conclusion, AUT-PK 500 was incubated with [gamma-^32 P] ATP and histone in the presence or absence of cyclic AMP, then subjected to SDS-polyacrylamide gel electrophoresis and analyzed by radioautography.

[3] = Table IV, -SH group inhibitor 5 mM, enzyme alone 18,500 cpm
[4] = Table II, addition 10 micrograms, enzyme alone 16,000 cpm
[5] = concentrations of up to 200 micrograms/ml

Compound: [Ca+2] [Ca^2+]
- ^32 P Incorporated (autophosphorylation of AUT-PK 500) (AUT-PK 500 [1]; Table III, 0.4 mM, enzyme alone 18,500 cpm): 17,000 cpm
- effect on AUT-PK 500 activity (AUT-PK 500 [1]; calcium or calcium-calmodulin, Table III): not affected
- concentration giving peak activity of the enzyme (AUT-PK 500 [1]): 20 mM
- maximal activation, relative to that obtained by Mn^2+ or Mg^2+ (AUT-PK 500 [1]): 60%

Compound: [Co+2] [Co^2+]
- concentration giving peak activity of the enzyme (AUT-PK 500 [1]): 5 mM
- maximal activation, relative to that obtained by Mn^2+ or Mg^2+ (AUT-PK 500 [1]): 40%
- EC50 (AUT-PK 500 [1]): 2.5 mM

Compound: Nc1nc2c(ncn2[C@@H]2O[C@@H]3COP(=O)(O)O[C@H]3[C@H]2O)c(=O)[nH]1 [Cyclic GMP]
- dependence of AUT-PK 500 activity on cyclic nucleotides / blockage by heat-stable inhibitor (AUT-PK 500 [1]): independent
- ^32 P Incorporated (autophosphorylation of AUT-PK 500) (AUT-PK 500 [1]; Table II, cyclic nucleotide 1 microM, enzyme alone 16,000 cpm): 16,300 cpm

Compound: O=C(O)CN(CCOCCOCCN(CC(=O)O)CC(=O)O)CC(=O)O [EGTA, 1,2-di(2-aminoethoxy)ethane-N,N,N',N'-tetraacetic acid]
- inhibition of AUT-PK 500 activity (AUT-PK 500 [1]; EGTA (Table III, 0.8 mM), explained by partial chelation of Mg^2+): 23.2%
- ^32 P Incorporated (autophosphorylation of AUT-PK 500) (AUT-PK 500 [1]; Table III, 0.8 mM, enzyme alone 18,500 cpm): 14,200 cpm

Compound: Nc1nc2c(ncn2[C@@H]2O[C@H](COP(=O)(O)OP(=O)(O)OP(=O)(O)O)[C@@H](O)[C@H]2O)c(=O)[nH]1 [GTP]
- effect on the ATP-dependent rate of self-phosphorylation (AUT-PK 500 [1]): did not affect
- incorporation of radioactivity with [gamma-^32 P] GTP as phosphate donor (AUT-PK 500 [1]; GTP in place of ATP): no incorporation of radioactivity was observed

Compound: NC(=O)CI [Iodoacetamide]
- ^32 P Incorporated (autophosphorylation of AUT-PK 500) (AUT-PK 500 [1]; [3]): 18,600 cpm

Compound: [Mg+2] [Mg^2+]
- concentration giving peak activity of the enzyme (AUT-PK 500 [1]): 10 mM
- EC50 (AUT-PK 500 [1]): 2.5 mM

Compound: [Mn+2] [Mn^2+]
- concentration giving peak activity of the enzyme (AUT-PK 500 [1]): 5 mM
- EC50 (AUT-PK 500 [1]): 2.5 mM

Compound: CCN1C(=O)C=CC1=O [N--Ethylmaleimide, N-ethylmaleimide]
- ^32 P Incorporated (autophosphorylation of AUT-PK 500) (AUT-PK 500 [1]; [3]): 18,000 cpm
- influence of sulfhydryl group inhibitors on AUT-PK 500 activity (AUT-PK 500 [1]): did not influence

Compound: [Sr+2] [Sr^2+]
- concentration giving peak activity of the enzyme (AUT-PK 500 [1]): 50 mM
- maximal activation, relative to that obtained by Mn^2+ or Mg^2+ (AUT-PK 500 [1]): of the same order
- EC50 (AUT-PK 500 [1]): 2.5 mM

Compound: O=S(=O)(O)c1cc[c]([Hg][Cl])cc1 [p-chloromercuriphenylsulfonic acid]
- ^32 P Incorporated (autophosphorylation of AUT-PK 500) (AUT-PK 500 [1]; [3]): 18,300 cpm
- influence of sulfhydryl group inhibitors on AUT-PK 500 activity (AUT-PK 500 [1]): did not influence

Compound: [K+] [potassium]
- effect on the AUT-PK 500 activity (AUT-PK 500 [1]): no significant effect

Compound: NCCCCN [putrescine]
- effect on the autophosphorylation of AUT-PK 500 (AUT-PK 500 [1]; polyamines each at 1 mM): No effect

Compound: [Na+] [sodium]
- effect on the AUT-PK 500 activity (AUT-PK 500 [1]): no significant effect

Compound: NCCCCNCCCN [spermidine]
- effect on the autophosphorylation of AUT-PK 500 (AUT-PK 500 [1]; polyamines each at 1 mM): No effect

Compound: NCCCNCCCCNCCCN [spermine]
- effect on the autophosphorylation of AUT-PK 500 (AUT-PK 500 [1]; polyamines each at 1 mM): No effect

Compound: Calmodulin
- ^32 P Incorporated (autophosphorylation of AUT-PK 500) (AUT-PK 500 [1]; Table III, 100 microgram/ml, enzyme alone 18,500 cpm): 17,400 cpm

Compound: Casein
- effect of exogenous substrate proteins on the phosphorylation of AUT-PK 500 (AUT-PK 500 [1]; Table II): None of these proteins affected the phosphorylation
- ^32 P Incorporated (autophosphorylation of AUT-PK 500) (AUT-PK 500 [1]; [4]): 10,000 cpm
- phosphorylation of the substrate by AUT-PK 500 (AUT-PK 500 [2]): did not phosphorylate

Compound: Protamine
- effect of exogenous substrate proteins on the phosphorylation of AUT-PK 500 (AUT-PK 500 [1]; Table II): None of these proteins affected the phosphorylation
- ^32 P Incorporated (autophosphorylation of AUT-PK 500) (AUT-PK 500 [1]; [4]): 12,000 cpm

Compound: lithium
- effect on the AUT-PK 500 activity (AUT-PK 500 [1]): no significant effect

Compound: polyarginine
- effect on the autophosphorylation of AUT-PK 500 (AUT-PK 500 [1]; [5]): No effect

Compound: polylysine
- effect on the autophosphorylation of AUT-PK 500 (AUT-PK 500 [1]; [5]): No effect
